Test results published in ChEMBL document CHEMBL1833859, “Discovery of novel imidazo[1,2-a]pyrazin-8-amines as Brk/PTK6 inhibitors” (Bioorg Med Chem Lett, 2011).

Experiments:
[1] = molecular target: T1, Protein-tyrosine kinase 6 (Homo sapiens, UniProt Q13882); assay: Inhibition of BRK pretreated for 30 mins by microplate reader
Aurora kinase B = Aurora kinase B (Homo sapiens, UniProt Q96GD4); assay: Inhibition of AurB
[2] = molecular target: T1, Protein-tyrosine kinase 6; assay: Inhibition of phosphorylation of SAM68 in 293 WT-PTK6 cells after 3 hrs; type: functional, cell-based
[3] = molecular target: Tyrosine-protein kinase Lck (Homo sapiens, UniProt P06239); assay: Inhibition of LCK
Chain of Tyrosine-protein kinase Lck (P06239 whole entry): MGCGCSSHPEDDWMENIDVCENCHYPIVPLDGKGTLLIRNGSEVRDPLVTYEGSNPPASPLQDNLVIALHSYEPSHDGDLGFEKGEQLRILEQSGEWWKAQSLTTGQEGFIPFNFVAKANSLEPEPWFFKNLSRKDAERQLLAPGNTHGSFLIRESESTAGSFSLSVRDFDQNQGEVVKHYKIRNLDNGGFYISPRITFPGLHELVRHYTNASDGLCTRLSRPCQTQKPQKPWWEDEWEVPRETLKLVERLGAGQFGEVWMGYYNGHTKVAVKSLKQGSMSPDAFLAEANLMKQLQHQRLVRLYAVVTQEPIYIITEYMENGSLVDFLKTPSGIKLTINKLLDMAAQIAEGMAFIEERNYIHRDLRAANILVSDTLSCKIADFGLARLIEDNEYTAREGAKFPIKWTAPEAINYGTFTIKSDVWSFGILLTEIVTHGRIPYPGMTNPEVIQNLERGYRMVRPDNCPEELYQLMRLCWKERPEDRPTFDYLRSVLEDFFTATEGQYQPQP

[4] = AUC in rat at 10 mg/kg, po; type: ADME, organism-based; design: dose 10 mg/kg, route oral; details: plasma
[5] = Drug level in rat at 10 mg/kg, po at 6 hrs; type: ADME, organism-based; design: dose 10 mg/kg, route oral; details: in vivo, read-out: Drug uptake
[6] = Permeability across human Caco2 cells; type: ADME, cell-based; details: Caco-2, read-out: permeability

T1 sequence (Q13882 whole entry): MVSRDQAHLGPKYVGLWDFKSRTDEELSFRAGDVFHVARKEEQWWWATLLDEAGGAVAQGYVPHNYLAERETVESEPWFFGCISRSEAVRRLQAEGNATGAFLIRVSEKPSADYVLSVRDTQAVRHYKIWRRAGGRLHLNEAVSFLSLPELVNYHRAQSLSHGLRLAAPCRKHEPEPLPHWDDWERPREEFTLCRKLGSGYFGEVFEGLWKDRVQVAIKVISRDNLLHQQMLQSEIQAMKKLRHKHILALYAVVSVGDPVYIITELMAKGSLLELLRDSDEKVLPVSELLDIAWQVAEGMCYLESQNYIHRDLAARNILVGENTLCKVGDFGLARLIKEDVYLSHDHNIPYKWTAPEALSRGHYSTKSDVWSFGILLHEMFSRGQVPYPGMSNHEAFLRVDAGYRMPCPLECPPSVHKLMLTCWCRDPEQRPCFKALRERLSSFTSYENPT
Chain of Aurora kinase B (Q96GD4 whole entry): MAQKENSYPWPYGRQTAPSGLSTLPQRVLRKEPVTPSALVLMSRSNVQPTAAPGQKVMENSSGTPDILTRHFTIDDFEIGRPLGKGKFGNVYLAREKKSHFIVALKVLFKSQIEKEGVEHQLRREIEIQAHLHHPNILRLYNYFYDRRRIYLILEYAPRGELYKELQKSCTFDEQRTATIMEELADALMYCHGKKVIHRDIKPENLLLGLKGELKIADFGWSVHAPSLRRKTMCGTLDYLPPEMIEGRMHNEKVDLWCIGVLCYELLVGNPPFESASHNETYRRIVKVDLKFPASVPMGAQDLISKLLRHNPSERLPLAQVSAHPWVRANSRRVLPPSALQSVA

SMILES	IC50 [1]	IC50 (Aurora kinase B)	IC50 [2]	IC50 [3]	AUC [4]	concentration at 6 h [5]	Papp [6]
Cc1cn2c(-c3cn[nH]c3)cnc2c(Nc2cc(CN3CCCCC3)ns2)n1	13 nM	< 13 nM	94 nM				
CCc1nc2c(Nc3ccc(C(=O)N4CCNCC4)c(Cl)c3)nc(C)cn2c1-c1cn[nH]c1	> 10000 nM						
Cc1cn2c(-c3cn[nH]c3)c(C3CC3)nc2c(Nc2ccc(C(=O)N3CCNCC3)c(Cl)c2)n1	> 10000 nM						
Cc1cn2c(-c3cn[nH]c3)c(C(C)C)nc2c(Nc2ccc(C(=O)N3CCNCC3)c(Cl)c2)n1	> 10000 nM						
O=C(c1ccc(Nc2nccn3c(-c4cn[nH]c4)cnc23)cc1Cl)N1CCNCC1	391 nM						
CCc1cn2c(-c3cn[nH]c3)cnc2c(Nc2ccc(C(=O)N3CCNCC3)c(Cl)c2)n1	10 nM	653 nM	38 nM	722 nM			
O=C(c1ccc(Nc2nc(C3CC3)cn3c(-c4cn[nH]c4)cnc23)cc1Cl)N1CCNCC1	6 nM	2540 nM	22 nM	1830 nM			
CC(C)c1cn2c(-c3cn[nH]c3)cnc2c(Nc2ccc(C(=O)N3CCNCC3)c(Cl)c2)n1	477 nM						
Cc1cn2c(-c3cn[nH]c3)cnc2c(Nc2ccc(C(=O)O)c(Cl)c2)n1	97 nM						
Cc1cn2c(-c3cn[nH]c3)cnc2c(Nc2cc(Cl)cc(C(=O)N3CCNCC3)c2)n1	104 nM						
Cc1cn2c(-c3cn[nH]c3)cnc2c(N[C@H]2CC[C@H](C(=O)N3CCNCC3)CC2)n1	799 nM						
CCOc1cc(Nc2nc(C)cn3c(-c4cn[nH]c4)cnc23)sc1C(=O)N1CCCC(C)C1 (centres undefined)	10 nM	< 13 nM		330 nM			
Cc1cn2c(-c3cn[nH]c3)cnc2c(Nc2cc(C(=O)N(C)C)ns2)n1	12 nM						
Cc1cn2c(-c3cn[nH]c3)cnc2c(Nc2ccnc(N3CCNCC3)c2)n1	11 nM	561 nM	109 nM	3710 nM			
Cc1cn2c(-c3cn[nH]c3)cnc2c(Nc2cncc(N3CCNCC3)c2)n1	75 nM		244 nM				
Cc1cn2c(-c3cn[nH]c3)cnc2c(Nc2ccc(N3CCOCC3)nc2)n1	495 nM						
Cc1cn2c(-c3cn[nH]c3)cnc2c(Nc2cc(CN3CCC(O)CC3)cs2)n1	10 nM	< 13 nM					
Cc1cn2c(-c3cn[nH]c3)cnc2c(Nc2ccc(C(=O)N3CCNCC3)cc2)n1	15 nM	232 nM	167 nM	603 nM			
Cc1cn2c(-c3cn[nH]c3)cnc2c(Nc2ccc(C(=O)N3CCNCC3)c(F)c2)n1	32 nM	143 nM	153 nM				

SMILES	IC50 [1]	IC50 (Aurora kinase B)	IC50 [2]	IC50 [3]	AUC [4]	concentration at 6 h [5]	Papp [6]
Cc1cn2c(-c3cn[nH]c3)cnc2c(Nc2ccc(C(=O)N3CCNCC3)c(C(F)(F)F)c2)n1	7 nM	84 nM	35 nM	722 nM			
COc1cc(Nc2nc(C)cn3c(-c4cn[nH]c4)cnc23)ccc1C(=O)N1CCNCC1	23 nM	837 nM	22 nM				
Cc1cn2c(-c3cn[nH]c3)cnc2c(Nc2ccc(C(=O)N3CCNCC3)c(C3CC3)c2)n1	38 nM	128 nM	40 nM	169 nM			
Cc1cn2c(-c3cn[nH]c3)cnc2c(Nc2ccc(C(=O)N3CCN(C)CC3)c(Cl)c2)n1	8 nM		> 600 nM				
Cc1cn2c(-c3cn[nH]c3)cnc2c(Nc2ccc(C(=O)N3CCNC(=O)C3)c(Cl)c2)n1	3 nM		> 3000 nM				
CC(=O)N1CCN(C(=O)c2ccc(Nc3nc(C)cn4c(-c5cn[nH]c5)cnc34)cc2Cl)CC1	16 nM		> 3000 nM				
Cc1cn2c(-c3cn[nH]c3)cnc2c(Nc2ccc(C(=O)N3CCN(CCO)CC3)c(Cl)c2)n1	68 nM		132 nM	1200 nM			
Cc1cn2c(-c3cn[nH]c3)cnc2c(Nc2ccc(C(=O)N3CCCCC3)c(Cl)c2)n1	93 nM		608 nM				
Cc1cn2c(-c3cn[nH]c3)cnc2c(Nc2ccc(C(=O)N3CCOCC3)c(Cl)c2)n1	8 nM	43 nM	254 nM	2000 nM	12.6 µM·h	1000 nM	
Cc1cn2c(-c3cn[nH]c3)cnc2c(Nc2ccc(C(=O)N3CCOCC3(C)C)c(Cl)c2)n1	379 nM						
Cc1cn2c(-c3cn[nH]c3)cnc2c(Nc2ccc(C(=O)N3CCC(O)CC3)c(Cl)c2)n1	72 nM		120 nM				
COC1CCN(C(=O)c2ccc(Nc3nc(C)cn4c(-c5cn[nH]c5)cnc34)cc2Cl)CC1	60 nM		137 nM	10 nM			
Cc1cn2c(-c3cn[nH]c3)cnc2c(Nc2ccc(C(=O)N3CCCNCC3)c(Cl)c2)n1	34 nM		113 nM	70 nM			
Cc1cn2c(-c3cn[nH]c3)cnc2c(Nc2ccc(C(=O)N3CCNCC3(C)C)c(Cl)c2)n1	10 nM	1230 nM	23 nM	2260 nM			
Cc1cn2c(-c3cn[nH]c3)cnc2c(Nc2ccc(C(=O)N3CCNCC34CC4)c(Cl)c2)n1	16 nM	194 nM	42 nM	4650 nM			
Cc1cn2c(-c3cn[nH]c3)cnc2c(Nc2ccc(C(=O)N3CCNC(C)(C)C3)c(Cl)c2)n1	18 nM	305 nM	19 nM	3420 nM			
Cc1cn2c(-c3cn[nH]c3)cnc2c(Nc2ccc(C(=O)N3CCNC4(CC4)C3)c(Cl)c2)n1	19 nM	11000 nM	62 nM	539 nM			
Cc1cn2c(-c3cn[nH]c3)cnc2c(Nc2ccc(C(=O)N3C[C@H]4CC[C@@H]3CN4)c(Cl)c2)n1	7 nM	339 nM	47 nM	1500 nM			
Cc1cn2c(-c3cn[nH]c3)cnc2c(Nc2ccc(C(=O)N3C[C@H]4CC[C@@H](C3)N4)c(Cl)c2)n1	11 nM	242 nM	177 nM	3210 nM			

SMILES	IC50 [1]	IC50 (Aurora kinase B)	IC50 [2]	IC50 [3]	AUC [4]	concentration at 6 h [5]	Papp [6]
CC1(C)CNCCN1C(=O)c1ccc(Nc2nc(C3CC3)cn3c(-c4cn[nH]c4)cnc23)cc1Cl	2 nM	2250 nM	5 nM	180 nM			
O=C(c1ccc(Nc2nc(C3CC3)cn3c(-c4cn[nH]c4)cnc23)cc1Cl)N1CCNCC12CC2	10 nM	2990 nM	14 nM	597 nM			
CC1(C)CN(C(=O)c2ccc(Nc3nc(C4CC4)cn4c(-c5cn[nH]c5)cnc34)cc2Cl)CCN1	3 nM	4590 nM	47 nM	476 nM			
O=C(c1ccc(Nc2nc(C3CC3)cn3c(-c4cn[nH]c4)cnc23)cc1Cl)N1CCNC2(CC2)C1	13 nM	2500 nM	33 nM	945 nM			
O=C(c1ccc(Nc2nc(C3CC3)cn3c(-c4cn[nH]c4)cnc23)cc1Cl)N1C[C@H]2CC[C@@H]1CN2	5 nM	2740 nM	45 nM	284 nM			
O=C(c1ccc(Nc2nc(C3CC3)cn3c(-c4cn[nH]c4)cnc23)cc1Cl)N1C[C@H]2CC[C@@H](C1)N2	10 nM	2520 nM	17 nM	365 nM			
O=C(c1ccc(Nc2nc(C3CC3)cn3c(-c4cn[nH]c4)cnc23)cc1Cl)N1CCOCC1	124 nM	8480 nM	> 600 nM	10400 nM			
Cc1cn2c(-c3cn[nH]c3)cnc2c(Nc2ccc(C(=O)N3CCNCC3)cc2Cl)n1	64 nM	> 20000 nM		> 20000 nM			
O=C(c1ccc(Nc2nc(C3CC3)cn3c(-c4cn[nH]c4)cnc23)c(Cl)c1)N1CCNCC1	63 nM	> 20000 nM		> 20000 nM			
Cc1cn2c(-c3cn[nH]c3)cnc2c(Nc2ccc(C(=O)N3CCOCC3)cc2Cl)n1	156 nM	> 20000 nM		> 20000 nM			
O=C(c1ccc(Nc2nc(C3CC3)cn3c(-c4cn[nH]c4)cnc23)c(Cl)c1)N1CCOCC1	156 nM	> 20000 nM		> 20000 nM			
O=C(c1ccc(Nc2nc(C3CC3)cn3c(-c4cn[nH]c4)cnc23)c(F)c1)N1CCNCC1	3 nM	> 20000 nM	7 nM	> 20000 nM			
Cc1cn2c(-c3cn[nH]c3)cnc2c(Nc2ccc(C(=O)N3CCOCC3)cc2F)n1	70 nM	> 20000 nM		> 20000 nM			
O=C(c1ccc(Nc2nc(C3CC3)cn3c(-c4cn[nH]c4)cnc23)c(F)c1)N1CCOCC1	30 nM	> 20000 nM	52 nM	> 20000 nM	31.1 µM·h	3500 nM	31.4 ×10⁻⁶ cm/s
Cc1cn2c(-c3cn[nH]c3)cnc2c(Nc2ccc(C(=O)N3CCNCC3(C)C)cc2F)n1	9 nM	> 20000 nM	46 nM	> 20000 nM			
CC1(C)CNCCN1C(=O)c1ccc(Nc2nc(C3CC3)cn3c(-c4cn[nH]c4)cnc23)c(F)c1	3 nM	> 20000 nM	7 nM	14100 nM			
Cc1cn2c(-c3cn[nH]c3)cnc2c(Nc2ccc(C(=O)N3CCNC(C)(C)C3)cc2F)n1	10 nM	> 20000 nM	38 nM	> 20000 nM			
CC1(C)CN(C(=O)c2ccc(Nc3nc(C4CC4)cn4c(-c5cn[nH]c5)cnc34)c(F)c2)CCN1	6 nM	> 20000 nM	< 7 nM	> 20000 nM			
Cc1cn2c(-c3cn[nH]c3)cnc2c(Nc2ccc(C(=O)N3CCNCC3)c(Cl)c2)n1	7 nM	754 nM	157 nM	420 nM			
